Measured values reported in paper PMC4648043, “Development of Small-Molecule Trypanosoma brucei N-Myristoyltransferase Inhibitors: Discovery and Optimisation of a Novel Binding Mode” (Chemmedchem, 2015).
Where two headings read alike, the source gives them in different places.

Assays:
TbNMT = target: T1, TbNMT (Trypanosoma brucei brucei, UniProt Q388H8); assay: biochemical; assay type: biochemical; settings: for LE TbNMT (ligand efficiency): calculated as 0.6 ln(IC50)/(heavy atom count); for IC50: mean of two or more determinations
T1 sequence (Q388H8 1-446): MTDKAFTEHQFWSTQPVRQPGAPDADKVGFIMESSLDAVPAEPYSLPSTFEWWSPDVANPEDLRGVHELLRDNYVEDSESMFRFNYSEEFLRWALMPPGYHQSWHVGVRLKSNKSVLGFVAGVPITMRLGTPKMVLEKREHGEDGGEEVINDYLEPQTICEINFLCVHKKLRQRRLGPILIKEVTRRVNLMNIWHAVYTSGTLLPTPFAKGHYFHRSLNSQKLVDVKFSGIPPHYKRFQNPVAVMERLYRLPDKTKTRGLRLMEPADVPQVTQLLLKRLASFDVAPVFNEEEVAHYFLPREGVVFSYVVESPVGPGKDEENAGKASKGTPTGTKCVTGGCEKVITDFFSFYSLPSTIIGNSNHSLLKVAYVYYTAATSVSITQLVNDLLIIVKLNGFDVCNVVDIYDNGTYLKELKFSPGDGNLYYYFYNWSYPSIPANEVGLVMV
Procedure: (§1) Parasite and NMT assays: These were carried out as described previously.[8–10]

hNMT = target: T2, hNMT (Homo sapiens, UniProt P30419); assay: human NMT enzyme inhibition assay; assay type: biochemical; settings: mean of two or more determinations
T2 sequence (P30419 1-496): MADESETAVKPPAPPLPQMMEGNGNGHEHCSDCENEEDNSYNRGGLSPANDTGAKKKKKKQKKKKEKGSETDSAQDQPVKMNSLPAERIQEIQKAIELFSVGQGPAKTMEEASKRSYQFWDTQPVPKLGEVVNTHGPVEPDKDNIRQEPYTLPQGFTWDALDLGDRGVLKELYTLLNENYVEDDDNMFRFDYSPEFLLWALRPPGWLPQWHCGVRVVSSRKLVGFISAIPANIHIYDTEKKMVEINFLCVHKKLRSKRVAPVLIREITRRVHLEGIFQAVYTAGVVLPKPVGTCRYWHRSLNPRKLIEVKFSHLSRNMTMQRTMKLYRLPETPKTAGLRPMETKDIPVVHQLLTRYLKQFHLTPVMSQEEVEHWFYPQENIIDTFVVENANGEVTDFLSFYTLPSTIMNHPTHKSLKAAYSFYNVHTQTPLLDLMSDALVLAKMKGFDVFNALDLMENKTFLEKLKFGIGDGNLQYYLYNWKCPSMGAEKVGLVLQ
Procedure: as §1

T. brucei = T. brucei parasite growth assay; assay type: cell-based, Trypanosoma brucei; settings: Trypanosoma brucei; mean of two or more determinations
Procedure: as §1

hMRC5 = assay: MRC5 cell assay; assay type: cell-based; settings: Homo sapiens, mean of two or more determinations

| Compound | LE TbNMT (ligand efficiency) (TbNMT) | IC50 (TbNMT; read-out: IC50 TbNMT) | IC50 (hNMT) | EC50 (T. brucei) | EC50 (hMRC5) | IC50 (TbNMT; IC50 TbNMT) | improvement in potency at TbNMT (TbNMT; relative to parent/starting compound) |
| --- | --- | --- | --- | --- | --- | --- | --- |
| Cc1cc(CN2C(=O)COc3ccccc32)no1 [Compound 23, 4-((5-Methylisoxazol-3-yl)methyl)-2H-benzo[b][1,4]oxazin-3(4H)-one] | 0.43 | 2.9 µM | > 100 µM |  |  |  |  |
| O=C1COc2ccccc2N1Cc1nc2ccccc2o1 [Compound 22, 4-(Benzo[d]oxazol-2-ylmethyl)-2H-benzo[b][1,4]oxazin-3(4H)-one] | 0.31 | 24 µM | > 100 µM |  |  |  |  |
| COc1cc(C2SCC(=O)N2Cc2ccco2)ccc1O (stereo not shown) [Compound 2, 3-(Furan-2-ylmethyl)-2-(4-hydroxy-3-methoxyphenyl)thiazolidin-4-one] | 0.33 | 7.6 µM | > 100 µM | > 50 µM |  |  |  |
| Cc1cc(CN2C(=O)C(C)Oc3ccccc32)no1 (stereo not shown) [Compound 34, 2-Methyl-4-((5-methylisoxazol-3-yl)methyl)-2H-benzo[b][1,4]oxazin-3(4H)-one] |  | > 100 µM | > 100 µM |  |  |  |  |
| O=C1COc2ccccc2N1Cc1ccccn1 [Compound 25, 4-(Pyridin-2-ylmethyl)-2H-benzo[b][1,4]oxazin-3(4H)-one] | 0.38 | 22 µM | > 100 µM |  |  |  |  |
| Cn1ccc(CN2C(=O)COc3ccccc32)n1 [Compound 32, 4-((1-Methyl-1H-pyrazol-3-yl)methyl)-2H-benzo[b][1,4]oxazin-3(4H)-one] |  | 80 µM | > 100 µM |  |  |  |  |
| CCOC(=O)CCN1C(=O)COc2ccccc21 [Compound 16, Ethyl 3-(3-oxo-2H-benzo[b][1,4]oxazin-4(3H)-yl)propanoate] | 0.38 | 13 µM | > 100 µM |  |  |  |  |
| Cc1cc(CN2C(=O)COc3cc(CCCOC4CCNCC4)ccc32)no1 [Compound 43, 4-((5-Methylisoxazol-3-yl)methyl)-7-(3-(piperidin-4-yloxy)propyl)-2H-benzo[b][1,4]oxazin-3(4H)-one] |  |  |  | 0.15 µM | 22 µM |  |  |
| O=C(CN1C(=O)COc2ccccc21)N1CCCC1 [Compound 21, 4-(2-Oxo-2-(pyrrolidin-1-yl)ethyl)-2H-benzo[b][1,4]oxazin-3(4H)-one] |  | > 100 µM |  |  |  |  |  |
| Cc1cc(CN2C(=O)COc3cc(Br)ccc32)no1 [Compound 37, 7-Bromo-4-((5-methylisoxazol-3-yl)methyl)-2H-benzo[b][1,4]oxazin-3(4H)-one] | 0.37 | 6.4 µM | > 100 µM |  |  |  |  |
| O=C(CCN1C(=O)COc2ccccc21)N1CCCC1 [Compound 17, 4-(3-Oxo-3-(pyrrolidin-1-yl)propyl)-2H-benzo[b][1,4]oxazin-3(4H)-one] | 0.34 | 11 µM | > 100 µM |  |  |  |  |
| O=C1CSC(c2ccccc2)N1Cc1ccccn1 (stereo not shown) [Compound 12, 2-Phenyl-3-(pyridin-2-ylmethyl)thiazolidin-4-one] | 0.39 | 5.9 µM | > 100 µM | > 50 µM |  |  |  |
| CN(C)C(=O)CN1C(=O)COc2ccccc21 [Compound 19, N,N-Dimethyl-2-(3-oxo-2H-benzo[b][1,4]oxazin-4(3H)-yl)acetamide] |  | > 100 µM | > 100 µM |  |  |  |  |
| CN(C)C(=O)CCN1C(=O)COc2ccccc21 [Compound 18, N,N-Dimethyl-3-(3-oxo-2H-benzo[b][1,4]oxazin-4(3H)-yl)propanamide] |  | 50 µM | > 100 µM |  |  |  |  |
| Cc1cc(CN2C(=O)COc3ccc(Cl)cc32)no1 [Compound 35, 6-Chloro-4-((5-methylisoxazol-3-yl)methyl)-2H-benzo[b][1,4]oxazin-3(4H)-one] |  | > 100 µM | > 100 µM |  |  |  |  |
| Cc1noc(CN2C(=O)COc3ccccc32)n1 [Compound 27, 4-((3-Methyl-1,2,4-oxadiazol-5-yl)methyl)-2H-benzo[b][1,4]oxazin-3(4H)-one] |  | > 100 µM | > 100 µM |  |  |  |  |
| O=C1CSC(c2ccccn2)N1c1ccccc1Cl (stereo not shown) [Compound 11, 3-(2-Chlorophenyl)-2-(pyridin-2-yl)thiazolidin-4-one] | 0.32 | 32 µM | > 100 µM | > 50 µM |  |  |  |
| Cc1nc(CN2C(=O)COc3ccccc32)no1 [Compound 28, 4-((5-Methyl-1,2,4-oxadiazol-3-yl)methyl)-2H-benzo[b][1,4]oxazin-3(4H)-one] | 0.40 | 7 µM | > 100 µM |  |  |  |  |

| Compound | LE TbNMT (ligand efficiency) (TbNMT) | IC50 (TbNMT; read-out: IC50 TbNMT) | IC50 (hNMT) | EC50 (T. brucei) | EC50 (hMRC5) | IC50 (TbNMT; IC50 TbNMT) | improvement in potency at TbNMT (TbNMT; relative to parent/starting compound) |
| --- | --- | --- | --- | --- | --- | --- | --- |
| O=C1CSC(c2ccccn2)N1c1ccccc1 (stereo not shown) [Compound 9] | 0.35 | 31 µM | 66 µM |  |  |  |  |
| CCN1C(=O)CSC1c1ccc(O)c(OC)c1 (stereo not shown) [Compound 3, 3-Ethyl-2-(4-hydroxy-3-methoxyphenyl)thiazolidin-4-one] |  | > 100 µM | > 100 µM |  |  |  |  |
| Cc1nc(CN2C(=O)COc3ccccc32)cs1 [Compound 24, 4-((2-Methylthiazol-4-yl)methyl)-2H-benzo[b][1,4]oxazin-3(4H)-one] | 0.33 | 44 µM | > 100 µM |  |  |  |  |
| COc1cc(C2SCC(=O)N2c2ccccn2)ccc1O (stereo not shown) [Compound 4, 2-(4-Hydroxy-3-methoxyphenyl)-3-(pyridin-2-yl)thiazolidin-4-one] |  | > 100 µM | > 100 µM |  |  |  |  |
| CC(C)Cc1nc(CN2C(=O)COc3ccccc32)no1 [Compound 29, 4-((5-Isobutyl-1,2,4-oxadiazol-3-yl)methyl)-2H-benzo[b][1,4]oxazin-3(4H)-one] | 0.32 | 18 µM | > 100 µM |  |  |  |  |
| COc1cccc(C2SCC(=O)N2Cc2ccco2)c1 (stereo not shown) [Compound 5, 3-(Furan-2-ylmethyl)-2-(3-methoxyphenyl)thiazolidin-4-one] |  | > 100 µM | > 100 µM |  |  |  |  |
| CCOC(=O)C(C)N1C(=O)COc2ccccc21 (stereo not shown) [Compound 15, Ethyl 2-(3-oxo-2H-benzo[b][1,4]oxazin-4(3H)-yl)propanoate] |  | > 100 µM | > 100 µM |  |  |  |  |
| O=C1CSC(c2ccccn2)N1c1cccc(Cl)c1 (stereo not shown) [Compound 7] | 0.36 | 13 µM | > 50 µM |  |  |  |  |
| Cc1cccc(CN2C(=O)COc3ccccc32)n1 [Compound 31, 4-((6-Methylpyridin-2-yl)methyl)-2H-benzo[b][1,4]oxazin-3(4H)-one] | 0.31 | 41 µM | 69 µM |  |  |  |  |
| CC(C)Cc1cc(CN2C(=O)COc3ccccc32)no1 [Compound 30, 4-((5-Isobutylisoxazol-3-yl)methyl)-2H-benzo[b][1,4]oxazin-3(4H)-one] | 0.34 | 9 µM | 30 µM |  |  |  |  |
| COc1cc(C2SCC(=O)N2Cc2ccccn2)ccc1O (stereo not shown) [Compound 13, 2-(4-Hydroxy-3-methoxyphenyl)-3-(pyridin-2-ylmethyl)thiazolidin-4-one] | 0.42 |  | > 100 µM | 14 µM |  | 0.27 µM | 20 fold |
| CNC(=O)CN1C(=O)COc2ccccc21 [Compound 20, N-Methyl-2-(3-oxo-2H-benzo[b][1,4]oxazin-4(3H)-yl)acetamide] |  | > 100 µM | > 100 µM |  |  |  |  |
| Cc1cc(CN2C(=O)COc3cc(Cl)ccc32)no1 [Compound 36, 7-Chloro-4-((5-methylisoxazol-3-yl)methyl)-2H-benzo[b][1,4]oxazin-3(4H)-one] | 0.37 | 7.1 µM | > 100 µM |  |  |  |  |
| O=C1CSC(c2ccccn2)N1c1ccc2ccccc2c1 (stereo not shown) [Compound 8] |  | > 100 µM | > 100 µM |  |  |  |  |
| O=C1CSC(c2ccccn2)N1c1ccc(Cl)cc1 (stereo not shown) [Compound 10, 3-(4-Chlorophenyl)-2-(pyridin-2-yl)thiazolidin-4-one] |  | > 100 µM | > 100 µM | > 50 µM |  |  |  |
| Cc1cc(CN2C(=O)COc3c(Br)cccc32)no1 [Compound 38, 8-Bromo-4-((5-methylisoxazol-3-yl)methyl)-2H-benzo[b][1,4]oxazin-3(4H)-one] | 0.37 | 11 µM | > 100 µM |  |  |  |  |
| O=C1COc2ccccc2N1Cc1ccncc1 [Compound 26, 4-(Pyridin-4-ylmethyl)-2H-benzo[b][1,4]oxazin-3(4H)-one] |  | > 100 µM | > 100 µM |  |  |  |  |
